Patent publication US11447486B2, “2-amino-benzimidazole derivatives and their use as 5-lipoxygenase and/or prostaglandin E synthase inhibitors” (INSTITUT PASTEUR KOREA, priority 2014, dated 2022)
Where two headings read alike, the source gives them in different places.

Legend:
human 5-LOX = target: T1, human 5-LOX (Homo sapiens, UniProt P09917); assay: 5-LOX enzyme activity, fluorescence method (5-HPETE, H2DCFDA); assay type: biochemical; conditions: read-out: 5-LO (IC50)
T1 construct: purchased Cayman 60402; host or cells: insect cells (lysate)
T1 sequence (P09917 1-674): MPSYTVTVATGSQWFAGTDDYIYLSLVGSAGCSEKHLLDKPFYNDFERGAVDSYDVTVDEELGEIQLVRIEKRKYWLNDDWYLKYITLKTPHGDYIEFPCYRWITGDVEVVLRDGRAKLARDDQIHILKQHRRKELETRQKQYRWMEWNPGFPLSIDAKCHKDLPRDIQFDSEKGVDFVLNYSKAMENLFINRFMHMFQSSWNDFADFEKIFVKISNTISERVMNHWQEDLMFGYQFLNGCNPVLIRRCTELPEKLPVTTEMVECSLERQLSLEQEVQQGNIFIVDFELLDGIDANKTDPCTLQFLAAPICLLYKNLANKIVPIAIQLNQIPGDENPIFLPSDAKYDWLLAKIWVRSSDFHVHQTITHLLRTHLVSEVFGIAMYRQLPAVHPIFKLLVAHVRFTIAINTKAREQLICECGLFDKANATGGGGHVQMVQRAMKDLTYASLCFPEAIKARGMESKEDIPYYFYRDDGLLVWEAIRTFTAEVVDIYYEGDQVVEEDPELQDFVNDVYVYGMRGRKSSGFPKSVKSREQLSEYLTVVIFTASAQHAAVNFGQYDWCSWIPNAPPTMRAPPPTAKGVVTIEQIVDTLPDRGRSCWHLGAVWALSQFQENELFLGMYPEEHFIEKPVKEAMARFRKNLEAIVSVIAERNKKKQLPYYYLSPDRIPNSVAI
Outline: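 Fluorescence-based read-out, run entirely at room temperature. Enzyme mixture was exposed to a dose range of compound from 0.5 nM to 10 uM for 5 min before ATP and arachidonic acid were added to final levels of 100 uM and 3 uM.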

[1] = system: Rat basophilic leukemia (RBL) cells; assay: LTB4 secretion assay in RBL (rat basophilic leukemia cells); assay type: cell-based
Outline: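 LTB4 released into supernatant was measured by EIA after 10 min at 37 °C with arachidonic acid (2.5 uM final) and calcium ionophore A23187 (5 uM final). Before stimulation, cells plated 2×10^4/well overnight received compound doses (5 nM to 100 uM) for 15 min in 0.5% FBS medium.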

Rat whole blood (RWB) = assay: LTB4 secretion assay in RWB (rat whole blood); assay type: cell-based
Outline: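 LTB4 release was measured by EIA in supernatants of pooled, sodium heparin rat blood (male Sprague Dawley, 6-9 weeks) diluted 1:1 with RPMI. Compounds (2.5 nM to 50 uM) were added 15 min before A23187 (10 uM final), with 10 min stimulation at 37 °C before ice-cold PBS quench.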

| Compound | IC50 (human 5-LOX) | EC50 ([1]; Rattus norvegicus, RBL) | EC50 (Rat whole blood (RWB); Rattus norvegicus) | EC50 [1] | EC50 (Rat whole blood (RWB)) |
| --- | --- | --- | --- | --- | --- |
| Nc1ccc2[nH]c(N3CCCC3c3ccc(Oc4ccc(Cl)cc4)cc3)nc2c1 (stereo not drawn) [Compound 145] | < 1 µM | < 10 µM | < 10 µM |  |  |
| Cc1cccnc1Nc1ccc2nc(NCc3ccc(Oc4ncc(Cl)cn4)cc3)n(C)c2c1 [Compound 464] | 1 to 10 µM | < 10 µM | < 10 µM |  |  |
| Cc1csc(Nc2ccc3nc(NCc4ccc(Oc5ncc(Cl)cn5)cc4)n(C)c3c2)n1 [Compound 501] | < 1 µM | < 10 µM | < 10 µM |  |  |
| Nc1ccc2nc(N3CCC3)n(CCOc3ccc(OC(F)(F)F)cc3)c2c1 [Compound 68] | < 1 µM | < 10 µM | > 20 µM |  |  |
| Cn1c(NCc2ccc(Oc3ncc(Cl)cn3)cc2)nc2ccc(NC(C)(C)C(N)=O)cc21 [Compound 358] | < 1 µM | < 10 µM | < 10 µM |  |  |
| Cn1c(NCc2ccc(Oc3ccc(Cl)cc3)nc2)nc2ccc(NC3COC3)cc21 [Compound 307] | < 1 µM | 10 to 20 µM | > 20 µM |  |  |
| Nc1ccc2[nH]c(NCc3ccc(Oc4ccccc4)cc3)nc2c1 [Compound 80] | < 1 µM | < 10 µM | < 10 µM |  |  |
| Nc1ccc2nc(N)n(Cc3ccc(Oc4ccc(C(F)(F)F)cn4)cc3)c2c1 [Compound 243] | < 1 µM | < 10 µM | < 10 µM |  |  |
| Clc1ccc(Oc2ccc(CNc3nc4cc(Nc5cn[nH]c5)ccc4[nH]3)cc2)cc1 [Compound 24] | < 1 µM | < 10 µM | < 10 µM |  |  |
| Nc1ccc2nc(NCc3ccc(OCCC(F)(F)F)cc3)[nH]c2c1 [Compound 176] | < 1 µM | < 10 µM | < 10 µM |  |  |
| CCn1c(NCc2ccc(Oc3ncc(Cl)cn3)cc2)nc2ccc(Nc3n[nH]c(C)c3Cl)cc21 [Compound 512] | < 1 µM | < 10 µM | < 10 µM |  |  |
| Cn1c(NCc2ccc(Oc3ccc(Cl)cc3)cc2)nc2ccc(N3CC(F)(F)C3)cc21 [Compound 193] | > 10 µM | < 10 µM | < 10 µM |  |  |
| CCn1c(NCc2ccc(Oc3ncc(C(F)(F)F)cn3)cc2)nc2ccc(Nc3n[nH]c(C)c3Cl)cc21 [Compound 516] | > 10 µM |  |  | < 10 µM | < 10 µM |
| Nc1ccc2nc(NCc3coc(-c4ccc(Cl)cc4)n3)[nH]c2c1 [Compound 175] | < 1 µM | < 10 µM | > 20 µM |  |  |
| CCn1c(NCc2ccc(Oc3ncc(C(F)(F)F)cn3)cc2)nc2ccc(Nc3cc(C)[nH]n3)cc21 [Compound 531] | < 1 µM | < 10 µM | < 10 µM |  |  |
| CNc1nc2ccc(N3CCC(Oc4ccc(OC(F)(F)F)cc4)C3)cc2[nH]1 (stereo not drawn) [Compound 104] | < 1 µM | < 10 µM | > 20 µM |  |  |
| Cc1cc(Nc2ccc3nc(NCc4ccc(Nc5ncc(Cl)cn5)cc4)n(C)c3c2)n[nH]1 [Compound 486] | < 1 µM | < 10 µM | < 10 µM |  |  |
| Nc1nc2ccc(NC3COC3)cc2n1Cc1ccc(Oc2ccc(Cl)cn2)cc1 [Compound 234] | < 1 µM | < 10 µM | < 10 µM |  |  |
| CC(CC(F)(F)F)Oc1ccc(CNc2nc3ccc(N)cc3[nH]2)cc1 (stereo not drawn) [Compound 172] | < 1 µM | < 10 µM | 10 to 20 µM |  |  |
| Cn1c(NCc2ccc(Oc3ccc(Cl)cn3)cc2)nc2c(F)cc(NC3COC3)cc21 [Compound 553] | < 1 µM | < 10 µM | < 10 µM |  |  |
| CN(C)c1nc2cc(NCc3ccc(Oc4ccc(OC(F)(F)F)cc4)cc3)ccc2[nH]1 [Compound 126] | < 1 µM | < 10 µM | > 20 µM |  |  |
| CCC(Nc1nc2ccc(Nc3cc(C(C)C)[nH]n3)cc2n1C)c1ccc(Oc2ncc(Cl)cn2)cc1 (stereo not drawn) [Compound 529] | < 1 µM | < 10 µM | < 10 µM |  |  |
| Cn1ccc(Nc2ccc3nc(NCc4ccc(Oc5ncc(Cl)cn5)cc4)n(C)c3c2F)n1 [Compound 487] | < 1 µM | < 10 µM | < 10 µM |  |  |
| Cn1nc(Nc2ccc3nc(NCc4ccc(Oc5ncc(C(F)(F)F)cn5)cc4)n(C)c3c2)cc1C(F)(F)F [Compound 519] | > 10 µM | < 10 µM | < 10 µM |  |  |
| Cn1c(NCc2ccc(Oc3ncc(Cl)cc3F)cc2)nc2ccc(NC3COC3)cc21 [Compound 324] | < 1 µM | < 10 µM | < 10 µM |  |  |

Now from value to molecule:

| IC50 (human 5-LOX) | EC50 ([1]; Rattus norvegicus, RBL) | EC50 (Rat whole blood (RWB); Rattus norvegicus) | EC50 [1] | EC50 (Rat whole blood (RWB)) | Compound |
| --- | --- | --- | --- | --- | --- |
| < 1 µM | < 10 µM | < 10 µM |  |  | Cn1c(NCc2ccc(Oc3ccc(C(F)(F)F)cn3)cc2)nc2ccc(NC3COC3)cc21 [Compound 284] |
| < 1 µM | < 10 µM | < 10 µM |  |  | COCCn1c(NCc2ccc(Oc3ccc(Cl)cn3)cc2)nc2ccc(NC3COC3)cc21 [Compound 269] |
| > 10 µM | < 10 µM | 10 to 20 µM |  |  | CCn1c(NCc2ccc(Oc3cnc(C(F)(F)F)cn3)cc2)nc2ccc(Nc3cc(C(F)(F)F)n(C)n3)cc21 [Compound 523] |
| < 1 µM | > 20 µM | > 20 µM |  |  | Cn1c(NCc2ccc(Oc3nc4ccc(N)cc4n3C)cc2)nc2ccc(NC3COC3)cc21 [Compound 409] |
| < 1 µM | < 10 µM | < 10 µM |  |  | CC(C)n1c(NCc2ccc(Oc3ccc(Cl)cn3)cc2)nc2ccc(NC3COC3)cc21 [Compound 271] |
| < 1 µM | < 10 µM | < 10 µM |  |  | Cn1nc(Nc2ccc3nc(NCc4ccc(Oc5ncc(Cl)cn5)cc4F)n(C)c3c2)cc1C(F)(F)F [Compound 503] |
| 1 to 10 µM | < 10 µM | < 10 µM |  |  | CCC(Nc1nc2ccc(Nc3cc(C(F)(F)F)n(C)n3)cc2n1C)c1ccc(Oc2cnc(Cl)cn2)cc1 (stereo not drawn) [Compound 517] |
| < 1 µM | < 10 µM | < 10 µM |  |  | CCn1c(NCc2ccc(Oc3ncc(C(F)(F)F)cn3)cc2F)nc2ccc(Nc3cc(C)[nH]n3)cc21 [Compound 540] |
| < 1 µM | < 10 µM | 10 to 20 µM |  |  | Cn1c(NCCOc2ccc(OC(F)(F)F)cc2Cl)nc2ccc(N)cc21 [Compound 56] |
| < 1 µM | < 10 µM | 10 to 20 µM |  |  | CC(Nc1ccc2nc(N(C)C)[nH]c2c1)c1ccc(Oc2ccc(Cl)cn2)cc1 (stereo not drawn) [Compound 152] |
| < 1 µM | < 10 µM | 10 to 20 µM |  |  | CCn1c(NCc2ccc(Oc3ncc(C(F)(F)F)cn3)cc2)nc2ccc(Nc3cc(C(C)(C)C)[nH]n3)cc21 [Compound 507] |
| < 1 µM | 10 to 20 µM | > 20 µM |  |  | Cn1c(NCc2ccc(Oc3cc(Cl)ncn3)cc2)nc2ccc(NC3COC3)cc21 [Compound 394] |
| < 1 µM | 10 to 20 µM | < 10 µM |  |  | Cn1c(NCc2ccc(Oc3ncc(Br)cn3)cc2)nc2ccc(NC3COC3)cc21 [Compound 362] |
| < 1 µM | 10 to 20 µM | 10 to 20 µM |  |  | COc1nc(Oc2ccc(CNc3nc4ccc(NC5COC5)cc4n3C)cc2)ncc1Cl [Compound 459] |
| < 1 µM | < 10 µM | < 10 µM |  |  | Nc1ccc2[nH]c(NCc3ccc(OC(F)(F)F)cc3)nc2c1 [Compound 79] |
| < 1 µM |  |  | < 10 µM | < 10 µM | CCn1c(NCc2ccc(Oc3ncc(C(F)(F)F)cn3)cc2)nc2ccc(Nc3cc(C(C)(C)C)[nH]n3)cc21 [Compound 513] |
